The text below walks through data of patent US10406207B2, “Peptide conjugates of GLP-1 receptor agonists and gastrin and their use” (priority 2010, dated 2019).

For assay [1], the target named is T1, human GLP-1 R (Homo sapiens, UniProt P43220).
T1 construct: expressed in transfected cells
Kind of assay: Human GLP-1 receptor efficacy assay (cAMP induction, FlashPlate). Type of assay: cell-based. As to conditions: Table 2; read-out: hGLP-1 R EC50. The procedure: On the day of analysis, growth medium was removed and the cells were washed once with 200 μl Tyrode buffer [Tyrode's Salts (9.6 g/l), 10 mM HEPES, pH 7.4]. […] The reaction was stopped by addition of 25 μl 0.5 M HCl and incubated on ice for 60 min.

The target in assay [2] is T2, human CCK-B R (Homo sapiens, UniProt P32239).
T2 construct: expressed in transfected cells
T2 sequence (P32239 1-447): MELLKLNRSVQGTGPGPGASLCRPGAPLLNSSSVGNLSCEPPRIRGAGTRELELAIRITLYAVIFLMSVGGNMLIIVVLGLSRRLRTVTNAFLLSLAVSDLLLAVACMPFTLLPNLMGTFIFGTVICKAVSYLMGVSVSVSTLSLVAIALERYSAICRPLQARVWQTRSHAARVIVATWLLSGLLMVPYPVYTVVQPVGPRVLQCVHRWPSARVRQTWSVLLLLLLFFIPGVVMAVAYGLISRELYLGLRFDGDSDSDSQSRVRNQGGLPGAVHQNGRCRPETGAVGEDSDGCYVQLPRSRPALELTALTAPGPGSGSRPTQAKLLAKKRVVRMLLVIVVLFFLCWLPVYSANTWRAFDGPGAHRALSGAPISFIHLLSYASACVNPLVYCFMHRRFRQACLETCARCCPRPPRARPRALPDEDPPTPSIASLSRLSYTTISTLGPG
The experiment in a line: Human CCK-B receptor efficacy assay (AlphaScreen SureFire p-ERK). Type of assay: cell-based. As to conditions: Table 2; read-out: hCCK-B R EC50.

Square brackets hold non-standard residues; d marks the D form. Peptide text beside a SMILES is read from it. Orn = NCCC[C@H](N)C(=O)O; AEEA = NCCOCCOCC(=O)O

T1 sequence (P43220 24-463): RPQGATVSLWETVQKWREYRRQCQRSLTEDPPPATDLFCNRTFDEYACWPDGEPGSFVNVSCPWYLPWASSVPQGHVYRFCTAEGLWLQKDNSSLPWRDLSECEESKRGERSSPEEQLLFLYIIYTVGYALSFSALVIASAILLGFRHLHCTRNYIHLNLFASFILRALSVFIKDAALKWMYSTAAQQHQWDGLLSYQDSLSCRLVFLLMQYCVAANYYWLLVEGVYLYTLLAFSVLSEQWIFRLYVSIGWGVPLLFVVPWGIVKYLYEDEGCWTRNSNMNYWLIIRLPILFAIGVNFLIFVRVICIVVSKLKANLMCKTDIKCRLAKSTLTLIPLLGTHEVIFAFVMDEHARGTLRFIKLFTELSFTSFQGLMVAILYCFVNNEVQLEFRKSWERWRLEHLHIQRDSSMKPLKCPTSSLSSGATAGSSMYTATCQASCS

Consider `CC[C@H](C)[C@H](NC(=O)[C@H](Cc1ccccc1)NC(=O)[C@H](CC(C)C)NC(=O)[C@H](CCCNC(=N)N)NC(=O)[C@@H](NC(=O)[C@H](C)NC(=O)[C@H](CCC(=O)O)NC(=O)[C@H](CCC(=O)O)NC(=O)[C@H](CCC(=O)O)NC(=O)[C@H](CC(C)C)NC(=O)[C@H](Cc1ccc(O)cc1)NC(=O)[C@H](CCCCN)NC(=O)[C@H](CO)NC(=O)[C@H](CC(C)C)NC(=O)[C@H](CCC(=O)O)NC(=O)[C@H](CO)NC(=O)[C@@H](NC(=O)[C@H](Cc1ccccc1)NC(=O)[C@@H](NC(=O)CNC(=O)[C@H](CCC(=O)O)NC(=O)CNC(=O)[C@@H](N)Cc1c[nH]cn1)[C@@H](C)O)[C@@H](C)O)C(C)C)C(=O)N[C@@H](CCC(=O)O)C(=O)N[C@@H](Cc1ccccc1)C(=O)N[C@@H](CC(C)C)C(=O)N[C@@H](CCCCN)C(=O)NCCOCCOCC(=O)N[C@@H](CCCN)C(=O)N[C@@H](Cc1c[nH]c2ccccc12)C(=O)N[C@@H](CC(C)C)C(=O)N[C@@H](CC(=O)O)C(=O)N[C@@H](Cc1ccccc1)C(N)=O` [Compound 99, [Glu9,Leu14,Phe25,Tyr13]Exendin-4(1-27)-Peg3-Orn-[Leu2]Gastrin4] (H-HGEGTFTSELSKYLEEEAVRLFIEFLK[AEEA][Orn]WLDF-NH2), for which the half-maximal effective concentration (EC50) in assay [1] came to 0.041 nM; in assay [2] it was 51 nM.
On to `CC[C@H](C)[C@H](NC(=O)[C@H](Cc1ccccc1)NC(=O)[C@H](CC(C)C)NC(=O)[C@H](CCCNC(=N)N)NC(=O)[C@@H](NC(=O)[C@H](C)NC(=O)[C@H](CCC(=O)O)NC(=O)[C@H](CCC(=O)O)NC(=O)[C@H](CCC(=O)O)NC(=O)[C@H](CC(C)C)NC(=O)[C@H](Cc1ccc(O)cc1)NC(=O)[C@H](CCCCN)NC(=O)[C@H](CO)NC(=O)[C@H](CC(C)C)NC(=O)[C@H](CCC(=O)O)NC(=O)[C@H](CO)NC(=O)[C@@H](NC(=O)[C@H](Cc1ccccc1)NC(=O)[C@@H](NC(=O)CNC(=O)[C@H](CCC(=O)O)NC(=O)CNC(=O)[C@@H](N)Cc1c[nH]cn1)[C@@H](C)O)[C@@H](C)O)C(C)C)C(=O)N[C@@H](CCC(=O)O)C(=O)N[C@@H](Cc1ccccc1)C(=O)N[C@@H](CC(C)C)C(=O)N[C@@H](CCCCN)C(=O)N[C@@H](CCCN)C(=O)N[C@@H](CCCN)C(=O)N[C@@H](Cc1c[nH]c2ccccc12)C(=O)N[C@@H](CC(C)C)C(=O)N[C@@H](CC(=O)O)C(=O)N[C@@H](Cc1ccccc1)C(N)=O` [Compound 100, [Glu9,Leu14,Phe25,Tyr13]Exendin-4(1-27)-Orn-Orn-[Leu2]Gastrin4] (H-HGEGTFTSELSKYLEEEAVRLFIEFLK[Orn][Orn]WLDF-NH2), for which the figures for the EC50 in assay [1] and in assay [2] were 0.11 nM and 860 nM, respectively.
In the case of `CC[C@H](C)[C@H](NC(=O)[C@H](Cc1ccccc1)NC(=O)[C@H](CC(C)C)NC(=O)[C@H](CCCNC(=N)N)NC(=O)[C@@H](NC(=O)[C@H](C)NC(=O)[C@H](CCC(=O)O)NC(=O)[C@H](CCC(=O)O)NC(=O)[C@H](CCC(=O)O)NC(=O)[C@H](CC(C)C)NC(=O)[C@H](Cc1ccc(O)cc1)NC(=O)[C@H](CCCCN)NC(=O)[C@H](CO)NC(=O)[C@H](CC(C)C)NC(=O)[C@H](CCC(=O)O)NC(=O)[C@H](CO)NC(=O)[C@@H](NC(=O)[C@H](Cc1ccccc1)NC(=O)[C@@H](NC(=O)CNC(=O)[C@H](CCC(=O)O)NC(=O)CNC(=O)[C@@H](N)Cc1c[nH]cn1)[C@@H](C)O)[C@@H](C)O)C(C)C)C(=O)N[C@@H](CCC(=O)O)C(=O)N[C@@H](Cc1ccccc1)C(=O)N[C@@H](CC(C)C)C(=O)N[C@@H](CCCCN)C(=O)NCCOCCOCC(=O)N[C@@H](Cc1ccc(O)cc1)C(=O)NCC(=O)N[C@@H](Cc1c[nH]c2ccccc12)C(=O)N[C@@H](CC(C)C)C(=O)N[C@@H](CC(=O)O)C(=O)N[C@@H](Cc1ccccc1)C(N)=O` [Compound 102, [Glu9,Leu14,Phe25,Tyr13]Exendin-4(1-27)-Peg3-[Leu4]Gastrin6], the EC50 is 0.091 nM in assay [1] and 54 nM in assay [2].
Taken in the same sequence, the figures for `CC[C@H](C)[C@H](NC(=O)[C@H](Cc1ccccc1)NC(=O)[C@H](CC(C)C)NC(=O)[C@H](CCCN)NC(=O)[C@@H](NC(=O)[C@H](C)NC(=O)[C@H](CCC(=O)O)NC(=O)[C@H](CCC(=O)O)NC(=O)[C@H](CCC(=O)O)NC(=O)[C@H](CCSC)NC(=O)[C@H](CCC(N)=O)NC(=O)[C@H](CCCCN)NC(=O)[C@H](CO)NC(=O)[C@H](CC(C)C)NC(=O)[C@H](CC(=O)O)NC(=O)[C@H](CO)NC(=O)[C@@H](NC(=O)[C@H](Cc1ccccc1)NC(=O)[C@@H](NC(=O)CNC(=O)[C@H](CCC(=O)O)NC(=O)CNC(=O)[C@@H](N)Cc1c[nH]cn1)[C@@H](C)O)[C@@H](C)O)C(C)C)C(=O)N[C@@H](CCC(=O)O)C(=O)N[C@@H](Cc1c[nH]c2ccccc12)C(=O)N[C@@H](CC(C)C)C(=O)N[C@@H](CCCCN)C(=O)N[C@@H](CC(N)=O)C(=O)NCCOCCOCC(=O)NCCOCCOCC(=O)N[C@@H](Cc1ccc(O)cc1)C(=O)NCC(=O)N[C@@H](Cc1c[nH]c2ccccc12)C(=O)N[C@@H](CC(C)C)C(=O)N[C@@H](CC(=O)O)C(=O)N[C@@H](Cc1ccccc1)C(N)=O` [Compound 66, [Orn20]Exendin-4(1-28)-Peg3-Peg3-[Leu4]Gastrin6] (H-HGEGTFTSDLSKQMEEEAV[Orn]LFIEWLKN[AEEA][AEEA]YGWLDF-NH2) were 0.038 nM and 15 nM.
For `CC[C@H](C)[C@H](NC(=O)[C@H](Cc1ccccc1)NC(=O)[C@H](CC(C)C)NC(=O)[C@H](CCCNC(=N)N)NC(=O)[C@@H](NC(=O)[C@H](C)NC(=O)[C@H](CCC(=O)O)NC(=O)[C@H](CCC(=O)O)NC(=O)[C@H](CCC(=O)O)NC(=O)[C@H](CC(C)C)NC(=O)[C@H](Cc1ccc(O)cc1)NC(=O)[C@H](CCCCN)NC(=O)[C@H](CO)NC(=O)[C@H](CC(C)C)NC(=O)[C@H](CCC(=O)O)NC(=O)[C@H](CO)NC(=O)[C@@H](NC(=O)[C@H](Cc1ccccc1)NC(=O)[C@@H](NC(=O)CNC(=O)[C@H](CCC(=O)O)NC(=O)CNC(=O)[C@@H](N)Cc1c[nH]cn1)[C@@H](C)O)[C@@H](C)O)C(C)C)C(=O)N[C@@H](CCC(=O)O)C(=O)N[C@@H](Cc1ccccc1)C(=O)N[C@@H](CC(C)C)C(=O)N[C@@H](CCCCN)C(=O)NCCOCCOCC(=O)NCCOCCOCC(=O)N[C@@H](Cc1ccc(O)cc1)C(=O)NCC(=O)N[C@@H](Cc1ccccc1)C(=O)N[C@@H](CC(C)C)C(=O)N[C@@H](CC(=O)O)C(=O)N[C@@H](Cc1ccccc1)C(N)=O` [Compound 90, [Glu9,Leu14,Phe25,Tyr13]Exendin-4(1-27)-Peg3-Peg3-[Leu4,Phe3]Gastrin6] (H-HGEGTFTSELSKYLEEEAVRLFIEFLK[AEEA][AEEA]YGFLDF-NH2) the same measures were 0.032 nM and 1300 nM.
Taken in the same sequence, the figures for `CC[C@H](C)[C@H](NC(=O)[C@H](Cc1ccccc1)NC(=O)[C@H](CC(C)C)NC(=O)[C@H](CCCCN)NC(=O)[C@@H](NC(=O)[C@H](C)NC(=O)[C@H](CCC(=O)O)NC(=O)[C@H](CCC(=O)O)NC(=O)[C@H](CCC(=O)O)NC(=O)[C@H](CC(C)C)NC(=O)[C@H](Cc1ccc(O)cc1)NC(=O)[C@H](CCCNC(=N)N)NC(=O)[C@H](CO)NC(=O)[C@H](CC(C)C)NC(=O)[C@H](CC(=O)O)NC(=O)[C@H](CO)NC(=O)[C@@H](NC(=O)[C@H](Cc1ccccc1)NC(=O)[C@@H](NC(=O)CNC(=O)[C@H](CCC(=O)O)NC(=O)CNC(=O)[C@@H](N)Cc1c[nH]cn1)[C@@H](C)O)[C@@H](C)O)C(C)C)C(=O)N[C@@H](CCC(=O)O)C(=O)N[C@@H](Cc1ccccc1)C(=O)N[C@@H](CC(C)C)C(=O)N[C@@H](CCCNC(=N)N)C(=O)NCCOCCOCC(=O)N[C@@H](Cc1ccc(O)cc1)C(=O)NCC(=O)N[C@@H](Cc1c[nH]c2ccccc12)C(=O)N[C@@H](CC(C)C)C(=O)N[C@@H](CC(=O)O)C(=O)N[C@@H](Cc1ccccc1)C(N)=O` [Compound 93, [Arg12,27,Leu14,Lys20,Phe25,Tyr13]Exendin-4(1-27)-Peg3-[Leu4]Gastrin6] (H-HGEGTFTSDLSRYLEEEAVKLFIEFLR[AEEA]YGWLDF-NH2) were 0.058 nM and 26 nM.
As to `CC[C@H](C)[C@H](NC(=O)[C@H](Cc1ccccc1)NC(=O)[C@H](CC(C)C)NC(=O)[C@H](CCCNC(=N)N)NC(=O)[C@@H](NC(=O)[C@H](C)NC(=O)[C@H](CCC(=O)O)NC(=O)[C@H](CCC(=O)O)NC(=O)[C@H](CCC(=O)O)NC(=O)[C@H](CC(C)C)NC(=O)[C@H](Cc1ccc(O)cc1)NC(=O)[C@H](CCCNC(=N)N)NC(=O)[C@H](CO)NC(=O)[C@H](CC(C)C)NC(=O)[C@H](CC(=O)O)NC(=O)[C@H](CO)NC(=O)[C@@H](NC(=O)[C@H](Cc1ccccc1)NC(=O)[C@@H](NC(=O)CNC(=O)[C@H](CCC(=O)O)NC(=O)CNC(=O)[C@@H](N)Cc1c[nH]cn1)[C@@H](C)O)[C@@H](C)O)C(C)C)C(=O)N[C@@H](CCCCN)C(=O)N[C@@H](Cc1ccccc1)C(=O)N[C@@H](CC(C)C)C(=O)N[C@@H](CCCNC(=N)N)C(=O)NCCOCCOCC(=O)N[C@@H](Cc1ccc(O)cc1)C(=O)NCC(=O)N[C@@H](Cc1c[nH]c2ccccc12)C(=O)N[C@@H](CC(C)C)C(=O)N[C@@H](CC(=O)O)C(=O)N[C@@H](Cc1ccccc1)C(N)=O` [Compound 94, [Arg12,27,Leu14,Lys24,Phe25,Tyr13]Exendin-4(1-27)-Peg3-[Leu4]Gastrin6] (H-HGEGTFTSDLSRYLEEEAVRLFIKFLR[AEEA]YGWLDF-NH2), the values for the EC50 in assay [1] and in assay [2] were 0.13 nM and 36 nM, respectively.
